Results reported in US7704995B2 (Exelixis, Inc., priority 2003, dated 2010).

What follows are compounds tested against T1, Chk1 (Homo sapiens, UniProt O14757) (assay: Chk1 kinase assay: incorporation of γ-33P ATP into immobilized myelin basic protein). Details: Table 11, Chk1 only; class symbols A-D; read-out: Chk1 IC50.
T1 construct: purchased Upstate Biotechnology
T1 sequence (O14757 1-476): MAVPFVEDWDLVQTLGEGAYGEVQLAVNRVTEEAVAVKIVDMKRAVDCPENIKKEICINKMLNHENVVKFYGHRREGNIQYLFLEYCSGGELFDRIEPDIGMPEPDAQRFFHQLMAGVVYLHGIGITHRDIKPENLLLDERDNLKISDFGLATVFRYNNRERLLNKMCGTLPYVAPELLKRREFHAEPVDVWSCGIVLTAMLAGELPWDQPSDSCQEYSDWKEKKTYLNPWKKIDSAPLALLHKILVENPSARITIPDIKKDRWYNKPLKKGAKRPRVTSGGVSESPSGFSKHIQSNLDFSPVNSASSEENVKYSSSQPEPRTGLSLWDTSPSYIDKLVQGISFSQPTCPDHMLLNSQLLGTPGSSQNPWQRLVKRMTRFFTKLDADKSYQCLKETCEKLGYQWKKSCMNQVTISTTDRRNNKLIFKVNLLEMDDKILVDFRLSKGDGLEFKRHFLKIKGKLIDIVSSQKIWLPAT
Assay type: biochemical
How it was run: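 Enzyme activity is measured as γ-33P transfer from ATP onto immobilized MBP over 1 h at room temperature, with Chk1 at 10 nM/10 μM unlabeled ATP and Chk2 at 20 nM/30 μM unlabeled ATP. Compounds are tested in 1% DMSO.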

`CC(C)(C)OC(=O)NCc1cccc(-c2cnc(N)c(C(=O)N[C@H]3CCCN(C(=O)OC(C)(C)C)C3)n2)c1` [Example 833, 1,1-dimethylethyl (3S)-3-{[(3-amino-6-{3-[({[(1,1-dimethylethyl)oxy]carbonyl}amino)methyl]phenyl}pyrazin-2-yl)carbonyl]amino}piperidine-1-carboxylate] and `CC(C)(C)OC(=O)N1CCC[C@H](NC(=O)c2nc(-c3cccc(CN)c3)cnc2N)C1` [Example 841, 1,1-dimethylethyl (3S)-3-[({3-amino-6-[3-(aminomethyl)phenyl]pyrazin-2-yl}carbonyl)amino]piperidine-1-carboxylate] fall in the same range of IC50: 50 to 1000 nM for the first, 50 to 1000 nM for the second.

`Nc1ncc(-c2cccc(C(=O)NCc3ccccc3F)c2)nc1-c1nnc([C@H]2CCCNC2)[nH]1` [Example 834, 3-(5-amino-6-{5-[(3S)-piperidin-3-yl]-4H-1,2,4-triazol-3-yl}pyrazin-2-yl)-N-[(2-fluorophenyl)methyl]benzamide] and `Nc1ncc(-c2cccc(C(=O)NCc3cccc(F)c3)c2)nc1-c1nnc([C@H]2CCCNC2)[nH]1` [Example 835, 3-(5-amino-6-{5-[(3S)-piperidin-3-yl]-4H-1,2,4-triazol-3-yl}pyrazin-2-yl)-N-[(3-fluorophenyl)methyl]benzamide] cannot be ordered by IC50: less than 50 nM for the first, less than 50 nM for the second.

`Nc1ncc(-c2cccc(C(=O)NCc3ccc(F)cc3)c2)nc1-c1nnc([C@H]2CCCNC2)[nH]1` [Example 836, 3-(5-amino-6-{5-[(3S)-piperidin-3-yl]-4H-1,2,4-triazol-3-yl}pyrazin-2-yl)-N-[(4-fluorophenyl)methyl]benzamide] and `Nc1ncc(-c2cccc(C(=O)NCc3ccc(Cl)cc3)c2)nc1-c1nnc([C@H]2CCCNC2)[nH]1` [Example 838, 3-(5-amino-6-{5-[(3S)-piperidin-3-yl]-4H-1,2,4-triazol-3-yl}pyrazin-2-yl)-N-[(4-chlorophenyl)methyl]benzamide] cannot be ordered by IC50: less than 50 nM for the first, less than 50 nM for the second.

`Nc1ncc(-c2cccc(C(=O)NCc3cccc(Cl)c3)c2)nc1-c1nnc([C@H]2CCCNC2)[nH]1` [Example 837, 3-(5-amino-6-{5-[(3S)-piperidin-3-yl]-4H-1,2,4-triazol-3-yl}pyrazin-2-yl)-N-[(3-chlorophenyl)methyl]benzamide] and `Nc1ncc(-c2cccc(C(=O)NCc3ccc(Cl)cc3)c2)nc1C(=O)N[C@H]1CCCNC1` [Example 861, 3-amino-6-[3-({[(4-chlorophenyl)methyl]amino}carbonyl)phenyl]-N-[(3S)-piperidin-3-yl]pyrazine-2-carboxamide] cannot be ordered by IC50: less than 50 nM for the first, less than 50 nM for the second.

`NCc1cccc(-c2cnc(N)c(C(=O)N[C@H]3CCCNC3)n2)c1` [Example 839, 3-amino-6-[3-(aminomethyl)phenyl]-N-[(3S)-piperidin-3-yl]pyrazine-2-carboxamide] and `Nc1ncc(-c2cccc(O)c2)nc1C(=O)N[C@H]1CCCNC1` [Example 840, 3-amino-6-(3-hydroxyphenyl)-N-[(3S)-piperidin-3-yl]pyrazine-2-carboxamide] cannot be ordered by IC50: less than 50 nM for the first, less than 50 nM for the second.

`Nc1ncc(-c2cccc(C(=O)NCc3ccc(F)cc3)c2)nc1C(=O)N[C@H]1CCCNC1` [Example 842, 3-amino-6-[3-({[(4-fluorophenyl)methyl]amino}carbonyl)phenyl]-N-[(3S)-piperidin-3-yl]pyrazine-2-carboxamide] and `CN(C)c1ccc(CNC(=O)c2cccc(-c3cnc(N)c(C(=O)N[C@H]4CCCNC4)n3)c2)cc1` [Example 852, 3-amino-6-{3-[({[4-(dimethylamino)phenyl]methyl}amino)carbonyl]phenyl}-N-[(3S)-piperidin-3-yl]pyrazine-2-carboxamide] cannot be ordered by IC50: less than 50 nM for the first, less than 50 nM for the second.

`Nc1ncc(-c2cccc(C(=O)NCc3ccc(OC(F)(F)F)cc3)c2)nc1C(=O)N[C@H]1CCCNC1` [Example 843, 3-amino-N-[(3S)-piperidin-3-yl]-6-(3-{[({4-[(trifluoromethyl)oxy]phenyl}methyl)amino]carbonyl}phenyl)pyrazine-2-carboxamide] and `Nc1ncc(-c2cccc(C(=O)NCc3ccccc3OC(F)(F)F)c2)nc1C(=O)N[C@H]1CCCNC1` [Example 846, 3-amino-N-[(3S)-piperidin-3-yl]-6-(3-{[({2-[(trifluoromethyl)oxy]phenyl}methyl)amino]carbonyl}phenyl)pyrazine-2-carboxamide] cannot be ordered by IC50: less than 50 nM for the first, less than 50 nM for the second.

`Nc1ncc(-c2cccc(C(=O)NCc3ccc(-c4ccccc4)cc3)c2)nc1C(=O)N[C@H]1CCCNC1` [Example 844, 3-amino-6-(3-{[(biphenyl-4-ylmethyl)amino]carbonyl}phenyl)-N-[(3S)-piperidin-3-yl]pyrazine-2-carboxamide] and `Nc1ncc(-c2cccc(C(=O)NCc3ccccc3-c3ccccc3)c2)nc1C(=O)N[C@H]1CCCNC1` [Example 847, 3-amino-6-(3-{[(biphenyl-2-ylmethyl)amino]carbonyl}phenyl)-N-[(3S)-piperidin-3-yl]pyrazine-2-carboxamide] cannot be ordered by IC50: less than 50 nM for the first, less than 50 nM for the second.

`Nc1ncc(-c2cccc(C(=O)NCc3ccc(-c4cnns4)cc3)c2)nc1C(=O)N[C@H]1CCCNC1` [Example 845, 3-amino-N-[(3S)-piperidin-3-yl]-6-{3-[({[4-(1,2,3-thiadiazol-5-yl)phenyl]methyl}amino)carbonyl]phenyl}pyrazine-2-carboxamide] and `CS(=O)(=O)c1ccc(CNC(=O)c2cccc(-c3cnc(N)c(C(=O)N[C@H]4CCCNC4)n3)c2)cc1` [Example 859, 3-amino-6-{3-[({[4-(methylsulfonyl)phenyl]methyl}amino)carbonyl]phenyl}-N-[(3S)-piperidin-3-yl]pyrazine-2-carboxamide] cannot be ordered by IC50: less than 50 nM for the first, less than 50 nM for the second.

`Nc1ncc(-c2cccc(C(=O)NCc3ccc(F)cc3F)c2)nc1C(=O)N[C@H]1CCCNC1` [Example 848, 3-amino-6-[3-({[(2,4-difluorophenyl)methyl]amino}carbonyl)phenyl]-N-[(3S)-piperidin-3-yl]pyrazine-2-carboxamide] and `Nc1ncc(-c2cccc(C(=O)NCc3ccc(Cl)cc3F)c2)nc1C(=O)N[C@H]1CCCNC1` [Example 849, 3-amino-6-[3-({[(4-chloro-2-fluorophenyl)methyl]amino}carbonyl)phenyl]-N-[(3S)-piperidin-3-yl]pyrazine-2-carboxamide] cannot be ordered by IC50: less than 50 nM for the first, less than 50 nM for the second.

`Nc1ncc(-c2cccc(C(=O)NCc3ccc(F)c(C(F)(F)F)c3)c2)nc1C(=O)N[C@H]1CCCNC1` [Example 850, 3-amino-6-{3-[({[4-fluoro-3-(trifluoromethyl)phenyl]methyl}amino)carbonyl]phenyl}-N-[(3S)-piperidin-3-yl]pyrazine-2-carboxamide] and `Nc1ncc(-c2cccc(C(=O)NCc3cc(Cl)ccc3F)c2)nc1C(=O)N[C@H]1CCCNC1` [Example 862, 3-amino-6-[3-({[(5-chloro-2-fluorophenyl)methyl]amino}carbonyl)phenyl]-N-[(3S)-piperidin-3-yl]pyrazine-2-carboxamide] cannot be ordered by IC50: less than 50 nM for the first, less than 50 nM for the second.

`Nc1ncc(-c2cccc(C(=O)NCc3ccc4ccccc4c3)c2)nc1C(=O)N[C@H]1CCCNC1` [Example 851, 3-amino-6-(3-{[(naphthalen-2-ylmethyl)amino]carbonyl}phenyl)-N-[(3S)-piperidin-3-yl]pyrazine-2-carboxamide] and `COc1ccccc1CNC(=O)c1cccc(-c2cnc(N)c(C(=O)N[C@H]3CCCNC3)n2)c1` [Example 855, 3-amino-6-{3-[({[2-(methyloxy)phenyl]methyl}amino)carbonyl]phenyl}-N-[(3S)-piperidin-3-yl]pyrazine-2-carboxamide] cannot be ordered by IC50: less than 50 nM for the first, less than 50 nM for the second.

`Nc1ncc(-c2cccc(C(=O)NCc3ccc4c(c3)OCO4)c2)nc1C(=O)N[C@H]1CCCNC1` [Example 853, 3-amino-6-(3-{[(1,3-benzodioxol-5-ylmethyl)amino]carbonyl}phenyl)-N-[(3S)-piperidin-3-yl]pyrazine-2-carboxamide] and `Nc1ncc(-c2cccc(C(=O)NCc3ccc4c(c3)OCCO4)c2)nc1C(=O)N[C@H]1CCCNC1` [Example 860, 3-amino-6-(3-{[(2,3-dihydro-1,4-benzodioxin-6-ylmethyl)amino]carbonyl}phenyl)-N-[(3S)-piperidin-3-yl]pyrazine-2-carboxamide] cannot be ordered by IC50: less than 50 nM for the first, less than 50 nM for the second.

`COc1ccc(CNC(=O)c2cccc(-c3cnc(N)c(C(=O)N[C@H]4CCCNC4)n3)c2)c(OC)c1` [Example 856, 3-amino-6-{3-[({[2,4-bis(methyloxy)phenyl]methyl}amino)carbonyl]phenyl}-N-[(3S)-piperidin-3-yl]pyrazine-2-carboxamide] and `Cc1cc(Cl)ccc1CNC(=O)c1cccc(-c2cnc(N)c(C(=O)N[C@H]3CCCNC3)n2)c1` [Example 857, 3-amino-6-[3-({[(4-chloro-2-methylphenyl)methyl]amino}carbonyl)phenyl]-N-[(3S)-piperidin-3-yl]pyrazine-2-carboxamide] cannot be ordered by IC50: less than 50 nM for the first, less than 50 nM for the second.

Work on `Cc1ccc(CNC(=O)c2cccc(-c3cnc(N)c(C(=O)N[C@H]4CCCNC4)n3)c2)c(F)c1F` [Example 858, 3-amino-6-[3-({[(2,3-difluoro-4-methylphenyl)methyl]amino}carbonyl)phenyl]-N-[(3S)-piperidin-3-yl]pyrazine-2-carboxamide] yielded an IC50 of less than 50 nM.
